Values quoted from earlier work in US20260355131A1, “SPRAY-DRIED COMPOSITIONS COMPRISING ADRENERGIC RECEPTOR MODULATORS” (OREXO AB, priority 2023, published 2026).

Experiments:
[1] = in solution
[2] = free acid/base compound

pH below which epinephrine is stable [1]: below 4
optimum pH balancing racemization and oxidation ([1]; Connors et al): 3.0-3.8
aqueous solubility [2]: more limited aqueous solubility
Compound: CNC[C@H](O)c1ccc(O)c(O)c1 [epinephrine]
